Laboratory results taken from article PMC6766655, “AhR–ROR-γt complex is a therapeutic target for MAP4K3/GLK^highIL-17A^high subpopulation of systemic lupus erythematosus” (The FASEB Journal, 2019).

Columns and labels:
murine primary T cells = test: ELISA of cytokines in supernatants of anti-CD3/CD28-stimulated murine primary T cells; format: cell-based; details: anti-CD3 plus anti-CD28
From the text: Primary human T cells were freshly isolated and negatively selected from the PBLs of clinical samples using a cocktail of biotin-conjugated anti-CD19, anti-CD14, and anti-CD11b antibodies (BioLegend) on a magnetic cell separation column (Miltenyi Biotec, Bergisch Gladbach, Germany) ([26]). In addition, primary murine T cells were negatively selected from the spleens of mice using magnetically coupled antibodies against CD11b, B220, CD49b, CD235, and TER-119 (Miltenyi Biotec) ([18]).
We further studied whether IL-17A production is abolished by verteporfin in human and murine T cells. We first tested the inhibitory effect of verteporfin in murine T cells stimulated with T-cell receptor (TCR) signaling (anti-CD3 plus anti-CD28 antibodies). […] This reduction is likely due to the inhibition of NF-κB activation ([18]) by the verteporfin treatment. This notion is supported by our published results that TCR-induced TNF-α and IFN-γ levels in T cells are inhibited by IKK-β conditional knockout ([18]). Next, we studied whether verteporfin attenuates IL-17A production using human peripheral blood T cells with stimulation. The levels of T-cell–secreted IL-17A in unstimulated T cells from patients with SLE and RA were enhanced compared with those from healthy controls (Fig. 5B). […] GLK overexpression in T cells selectively induces IL-17A production in Lck-GLK Tg mice ([18]). […] The inhibition of the production of other cytokines by the high-dose but not low-dose verteporfin treatment may be due to a requirement of higher concentration of verteporfin for an efficient inhibition of NF-κB activation.
Figure 5 Verteporfin (C1) blocks IL-17 production of human T cells. A) ELISA of various cytokines in supernatants of murine primary T cells stimulated with anti-CD3 or CD28 and cotreated with C1 (5 or 10 μM) for 3 d. Means ± SD are shown; n = 3/group. B) ELISA of various cytokines in supernatants of human T cells. T cells were stimulated with anti-CD3 or CD28 and cotreated with C1 (1 or 5 μM) for 3 d. HC, healthy control; N.S., not significant. Means ± SD are shown. *P < 0.05, **P < 0.01, ***P < 0.001 (2-tailed Student’s t test).

GLK kinase domain = biological target: T1, GLK kinase domain (Homo sapiens, UniProt Q8IVH8); test: In vitro GLK kinase assay with kinase-dead PKC-θ (K409W) as substrate; format: biochemical; details: GST-tagged kinase-dead PKC-θ (K409W) substrate; Fig. 3B
T1 construct: Recombinant proteins of GLK kinase domain plus recombinant proteins of GST-tagged kinase-dead PKC-θ (K409W) were subjected to in vitro kinase assays; made in house; host or cells: Escherichia coli (BL21)
T1 sequence (Q8IVH8 16-273 limits assumed): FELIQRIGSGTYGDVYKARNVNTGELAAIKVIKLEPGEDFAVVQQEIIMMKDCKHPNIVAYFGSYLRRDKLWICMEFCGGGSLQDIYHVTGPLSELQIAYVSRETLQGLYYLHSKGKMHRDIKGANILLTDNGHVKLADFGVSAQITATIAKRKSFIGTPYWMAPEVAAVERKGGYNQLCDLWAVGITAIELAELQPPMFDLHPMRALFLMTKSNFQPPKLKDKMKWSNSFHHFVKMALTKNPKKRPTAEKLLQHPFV
Experimental: GLK kinase activity was determined by measuring the rate of ADP production in the in vitro kinase reaction using ADP-Glo Kinase Assay Kit (Promega). For the kinase reaction, recombinant proteins of the GLK kinase domain (1 μg) were incubated with recombinant proteins of kinase-dead PKC-θ (K409W; 0.15 μg) plus ATP (0.1 mM) or myelin basic protein (MilliporeSigma) plus ATP (0.1 mM) in kinase buffer [40 mM Tris-HCl (pH 7.5), 20 mM MgCl2, 0.1 mg/ml bovine serum albumin, 10 mM DTT, and 0.1 mM Na3VO4] for 30 min at room temperature.
Cell-based high‐throughput screening was conducted against a representative library of 100,000 molecules at ∼10 μM. The Chinese hamster ovary CHO-K1 (ATCC, CCL-61) cells expressing GLK and NF-κB luciferase (Luc) reporter were used. The reaction volume was 5 μl (500 cells) per well in 1536‐well plates. There was no positive control. This high‐throughput screening campaign was successful, with a determined Z' factor of 0.57 ∼ 0.60. […] At the end, 1392 compounds were identified for high inhibition (>80%) of the GLK-induced NF-κB luciferase activity of CHO‐GLK‐Luc cells. […]
Figure 3 Verteporfin (C1) blocks the AhR–ROR-γt complex in human autoimmune T cells. […] D) Quantification of the PLA signals shown in panel C. *P < 0.05, ***P < 0.001 (2-tailed Student’s t test).

verteporfin
TCR-induced IL-17A production (murine primary T cells; 5 or 10 μM for 3 d): drastically abolished
TCR-induced IL-17B, IL-17E, and IL-17F levels (murine primary T cells; 5 or 10 μM for 3 d): not significantly decreased
TCR-induced TNF-α levels (murine primary T cells; 5 or 10 μM for 3 d): slightly but not significantly reduced
TCR-induced IFN-γ levels (murine primary T cells; high-dose 10 μM for 3 d): significantly inhibited
GLK kinase activity in vitro (GLK kinase domain): efficiently inhibited
